What all share (format): functional
The test system of assay [1] is Enterococcus faecium. Briefly: In vitro antibacterial activity against vancomycin-resistant Enterococcus faecium 154 (Enterococcus faecium ATCC 12202).
Assay [2] has as its system Enterococcus faecalis. Kind of assay: In vitro antibacterial activity against vancomycin-susceptible E. f. 034 (Enterococcus faecalis ATCC 29212).
The subject of assay [3] is Staphylococcus aureus. Kind of assay: In vitro antibacterial activity against methicillin-resistant S. a. 019 (Staphylococcus aureus ATCC 33591 ).
The subject of assay [4] is Staphylococcus aureus. Kind of assay: In vitro antibacterial activity against S. a. 213 (Staphylococcus. aureus ATCC 49951).
Assay [5] deals with Staphylococcus aureus. Briefly: In vitro antibacterial activity against S. a. 035 (Staphylococcus aureus ATCC 29213).
Assay [6] concerns Enterococcus faecalis. Briefly: In vitro antibacterial activity against vancomycin-susceptible E. f. 153 (Enterococcus faecalis ATCC 29212).
The subject of assay [7] is Staphylococcus aureus. Kind of assay: In vitro antibacterial activityd against methicillin-resistant S. a. 019 (Staphylococcus aureus ATCC 33591 ).
For assay [8], the system named is Enterococcus faecium. Briefly: In vitro antibacterial activityd against vancomycin-resistant Enterococcus faecium 154 (Enterococcus faecium ATCC 12202).
In assay [9] the test system is Staphylococcus aureus. Kind of assay: In vitro minimum inhibitory concentration of compound against S. a. 035 (Staphylococcus aureus ATCC 29213).

≈ marks a conversion by molar mass, not a printed value.

By MIC is commonly meant the lowest concentration found to suppress growth. Regarding `C/C(S)=N/NC[C@H]1CN(c2ccc(OCCN3CCCCC3)c(F)c2)C(=O)O1`, the MIC was determined as 4 µg/mL (≈ 9.74 µM) in the assay on Enterococcus faecium [1]; 8 µg/mL (≈ 19.5 µM) against Enterococcus faecalis [2]; 2 µg/mL (≈ 4.87 µM) in the assay with Staphylococcus aureus [3]; 8 µg/mL (≈ 19.5 µM) with Staphylococcus aureus [4]; 8 µg/mL (≈ 19.5 µM) against Staphylococcus aureus [5]; 4 µg/mL (≈ 9.74 µM) against Enterococcus faecalis [6].

Regarding `CO/C(S)=N/NC[C@H]1CN(c2ccc(OCCN3CCSCC3)c(F)c2)C(=O)O1`, the MIC amounted to 2 µg/mL (≈ 4.5 µM) against Enterococcus faecium [1]; 1 µg/mL (≈ 2.25 µM) in the assay on Enterococcus faecalis [2]; 1 µg/mL (≈ 2.25 µM) against Staphylococcus aureus [7]; 4 µg/mL (≈ 9 µM) against Staphylococcus aureus [4]; 4 µg/mL (≈ 9 µM) against Staphylococcus aureus [5]; 2 µg/mL (≈ 4.5 µM) in the assay with Enterococcus faecalis [6].

Regarding `CC(=O)NNC[C@H]1CN(c2ccc(OCCO)c(F)c2)C(=O)O1`, the MIC against Enterococcus faecalis [2] was determined as 16 µg/mL (≈ 48.9 µM); with Staphylococcus aureus [7], 8 µg/mL (≈ 24.4 µM); against Enterococcus faecium [8], 16 µg/mL (≈ 48.9 µM); with Staphylococcus aureus [5], 8 µg/mL (≈ 24.4 µM); against Enterococcus faecalis [6] it was 16 µg/mL (≈ 48.9 µM).

Take `CC(=O)NNC[C@H]1CN(c2ccc(OCCN3CCCC3)cc2)C(=O)O1`: the MIC in the assay with Enterococcus faecium [1] is over 32 µg/mL; against Enterococcus faecalis [2], over 32 µg/mL; against Staphylococcus aureus [3] it was 32 µg/mL (≈ 88.3 µM); against Staphylococcus aureus [5], over 32 µg/mL; in the assay with Enterococcus faecalis [6], over 32 µg/mL.

Turning to `C/C(S)=N/NC[C@H]1CN(c2ccc(OCCN3CCSCC3)c(F)c2)C(=O)O1`, the MIC in the assay on Enterococcus faecium [1] is 2 µg/mL (≈ 4.67 µM); against Enterococcus faecalis [2], 1 µg/mL (≈ 2.33 µM); against Staphylococcus aureus [3] it was 0.5 µg/mL (≈ 1.17 µM); in the assay on Staphylococcus aureus [4] it was 2 µg/mL (≈ 4.67 µM); against Staphylococcus aureus [5] it was 2 µg/mL (≈ 4.67 µM); against Enterococcus faecalis [6], 2 µg/mL (≈ 4.67 µM).

Consider `CC(=O)NNC[C@H]1CN(c2ccc(OCCN3CCSCC3)c(F)c2)C(=O)O1`, for which the MIC is 4 µg/mL (≈ 9.7 µM) in the assay on Enterococcus faecium [1]; 16 µg/mL (≈ 38.8 µM) in the assay with Enterococcus faecalis [2]; 4 µg/mL (≈ 9.7 µM) against Staphylococcus aureus [3]; 16 µg/mL (≈ 38.8 µM) in the assay with Staphylococcus aureus [4]; 16 µg/mL (≈ 38.8 µM) against Staphylococcus aureus [5]; 16 µg/mL (≈ 38.8 µM) against Enterococcus faecalis [6].

Turning to `CC(=O)NNC[C@H]1CN(c2ccc(OCCOCc3ccccc3)c(F)c2)C(=O)O1`, the minimum inhibitory concentration (MIC) in the assay with Enterococcus faecalis [2] was found to be 32 µg/mL (≈ 76.7 µM); in the assay with Staphylococcus aureus [3], 8 µg/mL (≈ 19.2 µM); against Enterococcus faecium [8], 32 µg/mL (≈ 76.7 µM); in the assay on Staphylococcus aureus [5], 16 µg/mL (≈ 38.3 µM); against Enterococcus faecalis [6] it was 32 µg/mL (≈ 76.7 µM).

On to `C/C(S)=N/NC[C@H]1CN(c2ccc(OCCN3CCOCC3)c(F)c2)C(=O)O1`, for which the minimum inhibitory concentration (MIC) in the assay on Enterococcus faecium [1] came out at 2 µg/mL (≈ 4.85 µM); against Enterococcus faecalis [2], 2 µg/mL (≈ 4.85 µM); in the assay on Staphylococcus aureus [9], 2 µg/mL (≈ 4.85 µM); against Staphylococcus aureus [3], 1 µg/mL (≈ 2.42 µM); in the assay with Staphylococcus aureus [4], 2 µg/mL (≈ 4.85 µM); against Enterococcus faecalis [6] it was 2 µg/mL (≈ 4.85 µM).

As to `CO/C(S)=N/NC[C@H]1CN(c2ccc(OCCN3CCOCC3)c(F)c2)C(=O)O1`, the minimum inhibitory concentration (MIC) was 2 µg/mL (≈ 4.67 µM) in the assay on Enterococcus faecium [1]; 2 µg/mL (≈ 4.67 µM) against Enterococcus faecalis [2]; 2 µg/mL (≈ 4.67 µM) in the assay on Staphylococcus aureus [3]; 4 µg/mL (≈ 9.34 µM) against Staphylococcus aureus [4]; 4 µg/mL (≈ 9.34 µM) with Staphylococcus aureus [5]; 4 µg/mL (≈ 9.34 µM) against Enterococcus faecalis [6].

For the compound `CC(=O)NNC[C@H]1CN(c2ccc(OCCN3CCOCC3)cc2)C(=O)O1`, the MIC in the assay with Enterococcus faecium [1], against Enterococcus faecalis [2], in the assay on Staphylococcus aureus [3], against Staphylococcus aureus [5] and with Enterococcus faecalis [6] was over 32 µg/mL each time.

As to `CC(=O)NNC[C@H]1CN(c2ccc(OCCN3CCCCC3)cc2)C(=O)O1`, the MIC against Enterococcus faecium [1], with Enterococcus faecalis [2], with Staphylococcus aureus [3], in the assay on Staphylococcus aureus [5] and in the assay on Enterococcus faecalis [6] was over 32 µg/mL each time.

For `CC(=O)NNC[C@H]1CN(c2ccc(OCCN3CCCCC3)c(F)c2)C(=O)O1`, the MIC in the assay with Enterococcus faecium [1] was determined as 64 µg/mL (≈ 162 µM); in the assay on Enterococcus faecalis [2], 64 µg/mL (≈ 162 µM); in the assay with Staphylococcus aureus [3], 32 µg/mL (≈ 81.1 µM); against Staphylococcus aureus [4] it was 64 µg/mL (≈ 162 µM); with Staphylococcus aureus [5], 64 µg/mL (≈ 162 µM); against Enterococcus faecalis [6], 64 µg/mL (≈ 162 µM).

As to `CC(=O)NNC[C@H]1CN(c2ccc(OCCN3CCOCC3)c(F)c2)C(=O)O1`, the MIC against Enterococcus faecium [1] is 4 µg/mL (≈ 10.1 µM); against Enterococcus faecalis [2], 16 µg/mL (≈ 40.4 µM); in the assay with Staphylococcus aureus [3], 4 µg/mL (≈ 10.1 µM); in the assay on Staphylococcus aureus [4], 16 µg/mL (≈ 40.4 µM); in the assay on Staphylococcus aureus [5] it was 16 µg/mL (≈ 40.4 µM); in the assay with Enterococcus faecalis [6], 16 µg/mL (≈ 40.4 µM).

Consider `CC(=O)NC[C@H]1CN(c2ccc(N3CCOCC3)c(F)c2)C(=O)O1` [LINEZOLID], for which the MIC in the assay on Enterococcus faecium [1] stood at 2 µg/mL (≈ 5.93 µM); against Staphylococcus aureus [3] it was 1 µg/mL (≈ 2.96 µM).

Take `CN[C@H](CC(C)C)C(=O)N[C@H]1C(=O)N[C@@H](CC(N)=O)C(=O)N[C@H]2C(=O)N[C@H]3C(=O)N[C@H](C(=O)N[C@H](C(=O)O)c4cc(O)cc(O)c4-c4cc3ccc4O)[C@H](O)c3ccc(c(Cl)c3)Oc3cc2cc(c3O[C@@H]2O[C@H](CO)[C@@H](O)[C@H](O)[C@H]2O[C@H]2C[C@](C)(N)[C@H](O)[C@H](C)O2)Oc2ccc(cc2Cl)[C@H]1O` [VANCOMYCIN]: the results for the MIC with Enterococcus faecium [1], with Enterococcus faecalis [2] and in the assay on Enterococcus faecalis [6] were over 32 µg/mL, 2 µg/mL (≈ 1.38 µM) and over 32 µg/mL, respectively.

The record behind these values is ChEMBL document CHEMBL1136452, “Influence of ethylene-oxy spacer group on the activity of linezolid: synthesis of potent antibacterials possessing a thiocarbonyl group” (2003).
